14 molecules from ChEMBL document CHEMBL1134877, “Design, synthesis and biological activity of carbohydrate-containing peptidomimetics as new ligands for the human tachykinin NK-2 receptor” (Bioorg Med Chem Lett, 2002) can be followed below.

The pKB is −log10 of the KB, conventionally taken in molar units. A high value points to a low KB. By Ki is commonly meant the dissociation constant of the complex between target and ligand, obtained from inhibition or displacement. Read a high Ki as weaker binding.

The structures appear in SMILES notation. Some results are limits rather than exact numbers.

The species named for one test is Oryctolagus cuniculus. In words: Antagonist activity on isolated endothelium-deprived rabbit pulmonary artery preparations when evaluated against a contractile concentration response curve to NKA. It is filed as functional.
In turn, `CCOC(=O)C1=C(C)OC2OC(COCc3ccccc3)C(OCc3ccccc3)C(OCc3ccccc3)C2[S+]1[O-]` (stereo not given) came in with a pKB of 6.

The next test has as its target T1, Substance-K receptor (Homo sapiens, UniProt P21452).
T1 sequence (P21452 whole entry): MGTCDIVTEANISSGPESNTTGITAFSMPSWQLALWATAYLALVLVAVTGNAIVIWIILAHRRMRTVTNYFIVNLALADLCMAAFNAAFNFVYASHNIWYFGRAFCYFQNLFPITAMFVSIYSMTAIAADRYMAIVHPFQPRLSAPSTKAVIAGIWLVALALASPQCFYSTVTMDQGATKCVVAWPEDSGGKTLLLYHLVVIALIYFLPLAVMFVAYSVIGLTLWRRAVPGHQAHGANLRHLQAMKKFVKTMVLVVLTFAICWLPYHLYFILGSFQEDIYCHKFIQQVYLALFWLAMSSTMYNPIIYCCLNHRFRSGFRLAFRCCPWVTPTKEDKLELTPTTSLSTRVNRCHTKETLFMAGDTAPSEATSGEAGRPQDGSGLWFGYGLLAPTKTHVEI
Kind of test: Displacement of [125I]NKA from human Tachykinin receptor 2 expressed in CHO cells. It is filed as cell-based. (In general: In a radioligand displacement assay an active substance lowers the binding of a labelled ligand.)
The molecule `CCOC(=O)C1=C(C)OC2OC(CO)C(OCc3ccccc3)C(O)C2[S+]1[O-]` (stereo not given) gave an inhibition constant Ki greater than 10 µM.

In the case of `CCOC(=O)C1=C(C)OC2OC(COCc3ccccc3)C(O)C(OCc3ccccc3)C2[S+]1[O-]` (stereo not given), the Ki is greater than 10 µM.

Consider `CCOC(=O)C1=C(C)OC2OC(COCc3ccccc3)C(OCc3ccccc3)C(OCc3ccccc3)C2[S+]1[O-]` (stereo not given), for which the affinity, expressed as Ki, was 0.25 µM.

Take `O=C(C1=C(c2ccccc2)OC2OC(COCc3ccccc3)C(OCc3ccccc3)C(OCc3ccccc3)C2[S+]1[O-])c1ccccc1` (stereo not given): the Ki stood at 0.79 µM.

As to `O=C(C1=C(c2ccccc2)OC2OC(COCc3ccccc3)C(OCc3ccccc3)C(OCc3ccccc3)C2S1)c1ccccc1` (stereo not given), the inhibition constant (Ki) is greater than 10 µM.

In turn, `CCOC(=O)C1=C(C)OC2OC(COCc3ccccc3)C(OCc3ccccc3)C(OCc3ccccc3)C2S1` (stereo not given) came in with a Ki of 12.6 µM.

In the case of `CC1=C(C(=O)Oc2ccccc2)[S+]([O-])C2C(O1)OC(COCc1ccccc1)C(OCc1ccccc1)C2OCc1ccccc1` (stereo not given), the inhibition constant Ki was 0.4 µM.

`CC1=C(C(=O)Oc2ccccc2)SC2C(O1)OC(COCc1ccccc1)C(OCc1ccccc1)C2OCc1ccccc1` (stereo not given) came in with an inhibition constant (Ki) greater than 10 µM.

The molecule `CCOC(=O)C1=C(C)OC2OC(COCc3ccccc3)C(OCc3ccccc3)C(O)C2[S+]1[O-]` (stereo not given) showed a Ki of 0.79 µM.

Take `O=C(C1=C(c2ccccc2)OC2OC(COCc3ccccc3)C(OCc3ccccc3)C(OCc3ccccc3)C2S1(=O)=O)c1ccccc1` (stereo not given): affinity was put at a Ki of 5.01 µM.

In turn, `CCOC(=O)C1=C(C)OC2OC(COCc3ccccc3)C(OCc3ccccc3)C(O)C2S1` (stereo not given) displayed an inhibition constant (Ki) of 12.6 µM.

For `CCOC(=O)C1=C(C)OC2OC(CO)C(OCc3ccccc3)C(OCc3ccccc3)C2S1` (stereo not given), the Ki amounted to 4 µM.

For the molecule `CCOC(=O)C1=C(C)OC2OC(CO)C(OCc3ccccc3)C(OCc3ccccc3)C2[S+]1[O-]` (stereo not given), the affinity corresponds to a Ki of 4 µM.

On to `CCOC(=O)C1=C(C)OC2OC(CO)C(OCc3ccccc3)C(O)C2S1` (stereo not given), for which the Ki is greater than 10 µM.
